“Also recorded” adds a separate entry of the source. Read-outs that look alike come from different tables or passages of the source.

For series [1] the following is noted: cited from earlier work.
For series [2], the system named is SARS-2-S pseudovirus (rVSV-ΔG luciferase). It counts as cell-based. The settings on record: pseudovirus pre-incubated with 1.56-100 mM drug for 2 hours, 66-fold dilution.
Series [3] has as its target T1, RBD^original (SARS-CoV-2 receptor binding domain) binding to ACE2 (Severe acute respiratory syndrome coronavirus 2, UniProt P0DTC2).
T1 construct: ACRO Biosystems); purchased ACRO Biosystems
The settings on record: for inhibition of binding of RBD^original to ACE2: RBD exposed to drug for 60 minutes, 0 to 20 mM; for binding of RBD^original to ACE2 at one and two hours post exposure and wash: drug at 5 mM for 1 hour, three washes.

The test system of series [4] is SARS-CoV-2, isolate USA-WA1/2020. It counts as cell-based.
Series [5] deals with SARS CoV2 (isolate USA-WA1/2020). On the set-up: species or system Syrian hamsters (Mesocricetus auratus). The settings on record: hamster, in vivo.
Series [6] addresses T2, SARS-CoV-2 spike protein (SARS-2-S) binding to ACE2 (Severe acute respiratory syndrome coronavirus 2, UniProt P0DTC2).
T2 construct: Recombinantly expressed RBD of SARS-2-S was first immobilized to a surface

In series [7] the test system is VSV pseudotype bearing the SARS-2-S protein (VSV-S). It counts as cell-based, SARS-CoV-2.
The format of series [8] is physicochemical. The settings on record: 11 mg/mL in 20 mM sodium citrate, pH 4.5, 38.5 mM NaCl; Aerogen Solo vibrating mesh nebulizer.

As for `OCC(S)CS` (stereo not shown) [2,3-Dimercaprol], the “pKa (thiol group)” value in series [1] (dithiol drugs, second thiol) was 10.6.
Take `NCCCNCCSP(=O)(O)O` [Amifostine]: the “pseudovirus cell entry, pseudovirus pre-treatment” value (shortened to “pseudovirus cell entry”) in series [2] is reported as “did not inhibit viral cell entry”.
`CC(C)(S)C(=O)N[C@@H](CS)C(=O)O` [Bucillamine]: the “pKa (thiol group)” value in series [1] is on record as 8.4; in series [1] (dithiol drugs, second thiol), 10.2.
Consider `N[C@@H](CSCC(=O)O)C(=O)O` [Carbocysteine], for which the “pseudovirus cell entry” value in series [2] is recorded as “did not inhibit viral cell entry”.
For the compound `NCCS` [Cysteamine], in series [3], the “inhibition of binding of RBD^original to ACE2” value (from here on “inhibition of binding … to ACE2”) is “decreased binding; also recorded: strong inhibitory effects”; the “binding of RBD^original to ACE2 at one and two hours post exposure and wash” value is given as “binding inhibition was retained for two hours”. Besides, the “pseudovirus cell entry” value in series [2] is reported as “decrease the entry efficiency”. Further, the “cytopathic effects (CPE) in virus-infected cells, virus exposed to drug prior to infection” value in series [4] was “inhibit live virus infection; also recorded: significantly inhibited”. The “potency among thiol drugs in the in vitro assays” value with SARS-CoV-2 was “most potent thiol drug”. In [5], the “SARS-CoV2 viral titers (viral RNA, RT-qPCR) in lungs” value is “did not decrease; also recorded: does not decrease”; the “interleukin-6 levels in lung lavage” value was “lower than control”; the “lung weights normalized to terminal body weights” value was “lower than in control groups”; the “lymphocytes in BAL fluid” value is given as “decreases”. Further, in series [5], the “neutrophils in BAL fluid” value is “decreases”, the “severity of SARS-CoV2 lung inflammation” value was “did decrease; also recorded: decreased; also recorded: has anti-inflammatory effects” and the “total leukocyte counts in the bronchoalveolar lavage (BAL) fluid” value was “lower than control”. Besides, the “pKa (thiol group)” value in series [1] was 8.2.
As to `O=C(O)C(S)C(S)C(=O)O` (stereo not shown) [Dimercaptosuccinic acid], the “pKa (thiol group)” value is 8.9 in series [1] and 10.8 in series [1] (dithiol drugs, second thiol).
On to `N[C@@H](CCC(=O)N[C@@H](CS)C(=O)NCC(=O)O)C(=O)O` [Glutathione], for which the “pKa (thiol group)” value in series [1] was 9.2.
Consider `O=S(=O)([O-])CCS.[Na+]` [MESNA, 2-mercaptoethane sulfonate, sodium salt], for which, in [3], the “inhibition of binding … to ACE2” value is reported as “strong inhibitory effects”; the “binding of RBD^original to ACE2 at one and two hours post exposure and wash” value is “binding inhibition was retained for two hours”. For the same compound, the “antiviral efficacy in vitro compared with NAC” value in the series with SARS-CoV-2 is on record as “superior antiviral efficacy in vitro”.
As for `O[C@@H]1[C@@H](O)[C@@H](O[C@H]2O[C@H](CS)[C@@H](O)[C@H](O)[C@H]2O)O[C@H](CS)[C@H]1O` [MUC-31, 6,6′-dithiotrehalose], in [6], the “binding inhibition after drug is washed out of the reaction mixture” value was “binding inhibition persists following drug contact”, the “inhibition of binding of ACE2 to SARS-2-S” value is listed as “inhibit binding” and the “potency in inhibiting ACE2 binding compared to NAC” value was “stronger potency”. For the same compound, in series [7], the “effectiveness for inhibiting viral entry compared with NAC” value is on record as “more effective than NAC”; the “inhibition of VSV-S cellular entry” value is listed as “inhibited VSV-S cellular entry; also recorded: inhibited from entering”; the “inhibition of VSV-S entry, all three concentrations” value is reported as “potent inhibition”. In addition, in [3], the “inhibition of binding … to ACE2” value is on record as “decreased binding; also recorded: strong inhibitory effects”; the “binding of RBD^original to ACE2 at one and two hours post exposure and wash” value was “binding inhibition was retained for two hours”. For the same compound, the “pseudovirus cell entry” value in [2] is on record as “decrease the entry efficiency”. The “cytopathic effects (CPE) in virus-infected cells, virus exposed to drug prior to infection” value in series [4] is “inhibit live virus infection; also recorded: significantly inhibited”. Further, in series [5] (0.5 mg/kg), the “SARS-CoV2 viral titers (viral RNA, RT-qPCR) in lungs” value was “decreases; also recorded: significantly lower”; the “interleukin-6 levels in lung lavage” value is “lower than control”; the “lung weights normalized to terminal body weights” value is on record as “lower than in control groups”; the “macrophages in BAL fluid” value was “decreases”. Moreover, in [5] (0.5 mg/kg), the “severity of SARS-CoV2 lung inflammation” value was “decreased; also recorded: limit SARS-COV-2-associated lung inflammation” and the “total leukocyte counts in the bronchoalveolar lavage (BAL) fluid” value is listed as “lower than control”. The “average mass median aerodynamic diameter (MMAD) of the exposure atmosphere” value in series [8] was 2.60 µm.
For the compound `CC(=O)N[C@@H](CS)C(=O)O` [NAC, N-acetyl-L-cysteine], the “inhibition of binding of ACE2 to SARS-2-S” value in [6] is reported as “inhibit binding”. In series [7], the “cell entry inhibition of VSV-S, only 5 and 25 mM” value is on record as “significant cell entry inhibition”; the “inhibition of VSV-S cellular entry” value was “inhibited VSV-S cellular entry; also recorded: inhibited from entering”.
Take `CC(C)(S)[C@@H](N)C(=O)O` [Penicillamine]: in [1], the “pKa (thiol group)” value is given as 10.5.
In the case of `CC(S)C(=O)NCC(=O)O` (stereo not shown) [Tiopronin], in series [1], the “pKa (thiol group)” value is 8.7.
With `NCCCNCCS` [WR-1065], in series [3], the “inhibition of binding … to ACE2” value was “strong inhibitory effects”; the “binding of RBD^original to ACE2 at one and two hours post exposure and wash” value is “binding inhibition was retained for two hours”. Moreover, the “pKa (thiol group)” value in series [1] is reported as 7.7 (WR-1065).

These data come from US20230172885A1, “THIOL-CONTAINING COMPOUNDS FOR USE IN TREATING CORONAVIRUS” (priority 2020, published 2023).
